The source made the active and inactive calls. No cut-off for these calls is given here.
What was measured:
[1] = Inhibition of human CES2A incubated for 33 mins
[2] = organism: Homo sapiens; experiment: Inhibition of human CES2A assessed as decrease in residual activity upto 1.6 nM; settings: time <= 30.0 min
[3] = (§1) Covalent inhibition of human CES2A
[4] = organism: Homo sapiens; experiment: as §1
[5] = biological target: Cholinesterase (Homo sapiens, UniProt P06276); experiment: Inhibition of human BuChE using BTCI as substrate incubated for 33 mins by Ellman's method
[6] = biological target: Prothrombin (Homo sapiens, UniProt P00734); experiment: Inhibition of human Thrombin using Z-GGRAMC as substrate preincubated for 3 mins followed by substrate addition by fluorescence based assay
[7] = biological target: Dipeptidyl peptidase 4 (Homo sapiens, UniProt P27487); experiment: Inhibition of human serum DPP-IV using GP-BAN as substrate preincubated for 3 mins followed by substrate addition by fluorescence based assay
[8] = tested on: Caco-2; experiment: Cytotoxicity against human Caco-2 cells at 100 uM incubated for 24 hrs by CCK8 assay; type: toxicity, cell-based; settings: caco-2, 24 h
[9] = Permeability across apical to basal side in human Caco-2 cells assessed as cumulative penetration amount at 25 uM incubated for 120 mins by UPLC-MS/MS analysis; type: ADME, cell-based; settings: caco-2, 2 h
[10] = Permeability across apical to basal side in human Caco-2 cells assessed as cumulative penetration amount at 100 uM incubated for 120 mins by UPLC-MS/MS analysis; type: ADME, cell-based; settings: caco-2, 2 h
[11] = Permeability across basal to apical side in human Caco-2 cells assessed as cumulative penetration amount at 25 uM incubated for 120 mins by UPLC-MS/MS analysis; type: ADME, cell-based; settings: caco-2, 2 h
[12] = Apparent permeability across basal to apical side in human Caco-2 cells at 50 uM incubated for 120 mins by UPLC-MS/MS analysis; type: ADME, cell-based
[13] = tested on: HepG2; experiment: Cytotoxicity against human HepG2 cells at <20 uM; type: toxicity, cell-based; settings: hepg2, 20 µM
[14] = biological target: T1, Cytochrome P450 2C8 (Homo sapiens, UniProt P10632); experiment: Inhibition of CYP2C8 in human liver microsomes using paclitaxel as substrate upto 10 uM; type: ADME, Microsome
T1 sequence (P10632 whole entry): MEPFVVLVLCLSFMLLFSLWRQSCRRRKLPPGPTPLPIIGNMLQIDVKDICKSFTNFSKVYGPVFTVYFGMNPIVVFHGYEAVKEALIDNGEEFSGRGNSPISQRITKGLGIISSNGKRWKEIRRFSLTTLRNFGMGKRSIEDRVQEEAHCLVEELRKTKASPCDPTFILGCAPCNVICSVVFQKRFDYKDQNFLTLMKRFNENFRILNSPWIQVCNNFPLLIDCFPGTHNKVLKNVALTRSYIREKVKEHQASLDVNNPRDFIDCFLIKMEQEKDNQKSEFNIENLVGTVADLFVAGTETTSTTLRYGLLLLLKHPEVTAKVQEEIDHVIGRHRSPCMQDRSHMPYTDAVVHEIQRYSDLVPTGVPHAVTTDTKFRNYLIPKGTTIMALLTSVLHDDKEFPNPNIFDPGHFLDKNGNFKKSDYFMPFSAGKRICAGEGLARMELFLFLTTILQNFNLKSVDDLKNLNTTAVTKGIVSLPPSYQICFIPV

[15] = biological target: T2, Cytochrome P450 1A2 (Homo sapiens, UniProt P05177); experiment: Inhibition of CYP1A2 in human liver microsomes using phenacetin as substrate upto 10 uM; type: ADME, Microsome
T2 sequence (P05177 whole entry): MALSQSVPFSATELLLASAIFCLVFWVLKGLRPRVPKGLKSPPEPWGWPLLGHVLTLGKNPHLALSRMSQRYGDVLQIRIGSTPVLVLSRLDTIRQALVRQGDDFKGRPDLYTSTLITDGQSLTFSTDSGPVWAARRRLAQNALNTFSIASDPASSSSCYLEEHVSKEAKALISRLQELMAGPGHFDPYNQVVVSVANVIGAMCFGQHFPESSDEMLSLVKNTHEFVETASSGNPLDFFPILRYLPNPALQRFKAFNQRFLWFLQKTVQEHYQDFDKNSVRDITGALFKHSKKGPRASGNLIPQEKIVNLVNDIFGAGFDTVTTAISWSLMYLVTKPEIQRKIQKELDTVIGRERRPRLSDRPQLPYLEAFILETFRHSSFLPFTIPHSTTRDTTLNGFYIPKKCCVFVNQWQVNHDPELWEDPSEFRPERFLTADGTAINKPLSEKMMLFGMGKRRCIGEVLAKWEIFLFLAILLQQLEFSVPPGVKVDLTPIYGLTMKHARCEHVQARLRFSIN

[16] = biological target: Cytochrome P450 2D6 (Homo sapiens, UniProt P10635); experiment: Inhibition of CYP2D6 in human liver microsomes using dextromethorphan as substrate upto 10 uM; type: ADME, Microsome
[17] = biological target: Cytochrome P450 2E1 (Homo sapiens, UniProt P05181); experiment: Inhibition of CYP2E1 in human liver microsomes using chlorzoxazone as substrate upto 10 uM; type: ADME, Microsome
[18] = Sub-acute toxicity in C57BL/6J mouse assessed as change in movement behaviors at 100 mg/kg/day, po treated for 14 days consecutively; type: organism-based; settings: in vivo, 336 h, time 14 day
[19] = Sub-acute toxicity in C57BL/6J mouse assessed as abnormality in gastrointestinal tract at 100 mg/kg/day, po treated for 14 days consecutively by H and E staining based analysis; type: organism-based; settings: in vivo, 336 h, time 14 day
[20] = Sub-acute toxicity in C57BL/6J mouse assessed as change in UREA level at 100 mg/kg/day, po treated for 14 days consecutively; type: organism-based; settings: in vivo, 336 h, time 14 day
[21] = Drug distribution in ileum of C57BL/6J mouse at 100 mg/kg, po administered as single dose measured for 0.5 to 3 hrs by UHPLC-Q-Orbitrap HRMS analysis; type: ADME, organism-based; settings: in vivo, time 0.5-3 hrs
[22] = Drug distribution in colon of C57BL/6J mouse at 100 mg/kg, po administered as single dose measured for 0.5 to 3 hrs by UHPLC-Q-Orbitrap HRMS analysis; type: ADME, organism-based; settings: in vivo, time 0.5-3 hrs
[23] = tested on: Mus musculus; experiment: Inhibition of irinotecan-triggered gut toxicity in C57BL/6J mouse bearing tumor cells assessed as increase in colonic length at 25 to 50 mg/kg/day, po treated for 14 days; type: functional, organism-based; settings: dose 25-50 mg/kg/day, time 14.0 day
[24] = tested on: Mus musculus; experiment: Inhibition of irinotecan-triggered gut toxicity in C57BL/6J mouse bearing tumor cells assessed as intact structures in colon tissue at 25 to 50 mg/kg/day, po treated for 14 days by H and E staining based analysis; type: functional, organism-based; settings: dose 25-50 mg/kg/day, time 14.0 day
[25] = tested on: Mus musculus; experiment: Inhibition of irinotecan-triggered gut toxicity in C57BL/6J mouse bearing tumor cells assessed as increase in ZO-1 level in colon tissue at 25 to 50 mg/kg/day, po treated for 14 days by immunofluorescence based analysis; type: functional, organism-based; settings: dose 25-50 mg/kg/day, time 14.0 day
[26] = tested on: Mus musculus; experiment: Inhibition of irinotecan-triggered gut toxicity in C57BL/6J mouse bearing tumor cells assessed as decrease in SN38 level in colon tissue at 25 to 50 mg/kg/day, po treated for 14 days; type: functional, organism-based; settings: dose 25-50 mg/kg/day, time 14.0 day
[27] = tested on: Mus musculus; experiment: Inhibition of irinotecan-induced anti-tumor activity in C57BL/6J mouse bearing tumor cells assessed as increase in tumor volume at 25 to 50 mg/kg/day, po treated for 14 days; type: functional, organism-based; settings: dose 25-50 mg/kg/day, time 14.0 day

Sequence of Cytochrome P450 2E1 (P05181 whole entry): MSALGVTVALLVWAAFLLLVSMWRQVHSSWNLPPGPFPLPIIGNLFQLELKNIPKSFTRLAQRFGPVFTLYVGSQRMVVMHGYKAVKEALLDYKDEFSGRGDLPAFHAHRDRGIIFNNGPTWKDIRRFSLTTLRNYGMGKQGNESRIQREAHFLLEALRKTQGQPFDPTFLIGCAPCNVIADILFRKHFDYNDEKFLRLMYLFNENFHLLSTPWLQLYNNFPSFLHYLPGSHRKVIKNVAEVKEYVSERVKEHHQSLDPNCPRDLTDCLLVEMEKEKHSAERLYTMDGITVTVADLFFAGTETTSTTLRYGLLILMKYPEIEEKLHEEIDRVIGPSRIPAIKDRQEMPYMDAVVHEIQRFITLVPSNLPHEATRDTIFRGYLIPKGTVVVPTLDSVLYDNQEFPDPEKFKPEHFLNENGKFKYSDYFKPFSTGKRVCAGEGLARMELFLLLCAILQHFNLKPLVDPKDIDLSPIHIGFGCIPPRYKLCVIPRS
Sequence of Cholinesterase (P06276 whole entry): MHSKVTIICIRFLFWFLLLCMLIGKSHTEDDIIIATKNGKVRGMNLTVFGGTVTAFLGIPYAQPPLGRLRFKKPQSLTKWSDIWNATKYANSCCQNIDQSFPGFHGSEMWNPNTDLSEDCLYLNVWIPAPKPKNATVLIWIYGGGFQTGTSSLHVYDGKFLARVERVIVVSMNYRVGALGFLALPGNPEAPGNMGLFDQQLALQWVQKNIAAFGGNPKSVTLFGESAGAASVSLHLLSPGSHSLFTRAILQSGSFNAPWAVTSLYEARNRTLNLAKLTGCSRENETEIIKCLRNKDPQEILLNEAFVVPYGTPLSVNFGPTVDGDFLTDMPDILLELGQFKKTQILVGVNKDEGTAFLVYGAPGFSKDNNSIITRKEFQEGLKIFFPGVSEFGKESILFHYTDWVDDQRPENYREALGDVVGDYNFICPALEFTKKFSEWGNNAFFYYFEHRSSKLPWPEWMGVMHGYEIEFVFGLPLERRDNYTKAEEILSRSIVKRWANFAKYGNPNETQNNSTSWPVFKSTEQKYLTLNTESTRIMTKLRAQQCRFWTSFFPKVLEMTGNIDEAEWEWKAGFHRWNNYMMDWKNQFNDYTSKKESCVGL
Sequence of Cytochrome P450 2D6 (P10635 whole entry): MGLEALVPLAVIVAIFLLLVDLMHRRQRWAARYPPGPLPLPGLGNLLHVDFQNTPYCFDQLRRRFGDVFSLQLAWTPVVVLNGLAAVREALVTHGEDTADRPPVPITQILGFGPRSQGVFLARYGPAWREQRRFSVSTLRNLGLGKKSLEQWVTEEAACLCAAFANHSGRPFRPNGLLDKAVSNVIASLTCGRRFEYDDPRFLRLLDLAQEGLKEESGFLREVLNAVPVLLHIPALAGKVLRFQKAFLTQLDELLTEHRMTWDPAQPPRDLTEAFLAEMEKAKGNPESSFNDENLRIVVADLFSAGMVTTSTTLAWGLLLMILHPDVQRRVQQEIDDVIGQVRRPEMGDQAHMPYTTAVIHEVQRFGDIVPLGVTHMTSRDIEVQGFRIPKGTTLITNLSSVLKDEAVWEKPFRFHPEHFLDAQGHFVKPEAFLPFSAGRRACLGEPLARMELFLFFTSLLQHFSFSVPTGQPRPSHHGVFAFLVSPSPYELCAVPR
Sequence of Dipeptidyl peptidase 4 (P27487 whole entry): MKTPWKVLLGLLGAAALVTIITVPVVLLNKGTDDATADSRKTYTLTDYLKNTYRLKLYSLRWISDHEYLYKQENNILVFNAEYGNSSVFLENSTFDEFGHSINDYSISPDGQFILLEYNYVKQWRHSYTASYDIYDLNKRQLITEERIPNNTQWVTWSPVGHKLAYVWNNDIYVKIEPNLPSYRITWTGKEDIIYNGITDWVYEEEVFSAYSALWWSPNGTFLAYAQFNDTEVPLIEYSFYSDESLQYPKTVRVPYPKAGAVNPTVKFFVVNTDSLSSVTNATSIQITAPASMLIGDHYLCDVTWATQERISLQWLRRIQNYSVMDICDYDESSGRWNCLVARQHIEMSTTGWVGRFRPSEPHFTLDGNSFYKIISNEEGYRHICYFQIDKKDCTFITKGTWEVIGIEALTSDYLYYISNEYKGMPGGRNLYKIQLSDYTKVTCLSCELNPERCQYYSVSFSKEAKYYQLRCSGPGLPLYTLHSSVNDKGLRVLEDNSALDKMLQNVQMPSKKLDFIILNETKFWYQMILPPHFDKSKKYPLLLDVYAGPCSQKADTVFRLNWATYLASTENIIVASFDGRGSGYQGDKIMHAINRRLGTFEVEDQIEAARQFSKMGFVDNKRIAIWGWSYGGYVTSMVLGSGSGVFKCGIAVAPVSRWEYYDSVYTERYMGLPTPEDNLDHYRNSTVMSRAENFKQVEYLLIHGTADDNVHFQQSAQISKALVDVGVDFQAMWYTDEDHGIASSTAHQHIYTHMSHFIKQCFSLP

For `CCN(C)C(=O)Oc1ccc(C(=O)N2CCC(Cc3ccccc3)CC2)cc1OC`, the IC50 [1] was 0.04 nM, the inhibition [2] was “Time-dependent-effect” and the Ki [3] was 0.065 nM. The Kinact [4] was 0.033 min⁻¹, the IC50 [5] was 834 nM and the IC50 [6] was over 10000 nM. For the same compound, the IC50 [7] was over 10000 nM, the Activity [8] was “Non-toxic” and the Activity [9] was 3.17 µM. The Activity [10] was 9.47 µM, the Activity [11] was 2.03 µM and the Papp B→A at 2 h, 50 µM [12] was 10.5 ×10⁻⁶ cm/s. The Activity [13] was “Non-toxic”, the “inhibition (INH)” value [14] was “Not_active” and the “inhibition (INH)” value [15] was “Not_active”. For the same compound, the “inhibition (INH)” value [16] was “Not_active”, the “inhibition (INH)” value [17] was “Not_active” and the Activity [18] was “Non-toxic”. The Activity [19] was “Non-toxic”, the Activity [20] was “Non-toxic” and the Drug uptake [21] was “Active”. For the same compound, the Drug uptake [22] was “Active”, the inhibition [23] was “Active” and the inhibition [24] was “Active”. The inhibition [25] was “Active”, the inhibition [26] was “Active” and the inhibition [27] was “inactive”.

From ChEMBL document CHEMBL6103648, “AI-Driven Discovery of Highly Specific and Efficacious hCES2A Inhibitors for Ameliorating Irinotecan-Triggered Gut Toxicity” (J Med Chem, 2025)
